These results are taken from patent US20180000085A1, “USE OF PICOLINAMIDE COMPOUNDS WITH FUNGICIDAL ACTIVITY” (DOW AGROSCIENCES LLC, priority 2014, published 2018).

One assay deals with Zymoseptoria tritici. Nature of the assay: Leaf blotch of wheat (SEPTTR) disease control on wheat seedlings. The format is in vivo. The arrangement: key to SEPTTR 1DP, HV activity at 100 ppm (% control rating) / SEPTTR 3DC, HV activity at 100 ppm (% control rating) / SEPTTR disease control, 1DP / SEPTTR disease control, 3DC / SEPTTR 1DP disease control rating, HV activity / SEPTTR 3DC disease control rating, HV activity / SEPTTR 3DC, LV activity at 125.1 g/H (% Control rating) / SEPTTR 1DP, LV activity at 125.1 g/H (% Control rating) / SEPTTR 1DP disease control rating, LV activity at 125.1 g/H / SEPTTR 3DC disease control rating, LV activity at 125.1 g/H / SEPTTR 3DC disease control rating, HV activity at 100 ppm / SEPTTR 1DP disease control rating, HV activity at 100 ppm / HV activity at 100 ppm SEPTTR 3DC (disease control rating) / HV activity at 100 ppm SEPTTR 1DP (disease control rating) / LV activity at 125.1 g/H SEPTTR 1DP (disease control rating) / LV activity at 125.1 g/H SEPTTR 3DC (disease control rating): A: > 80; B: ≤ 80; C: Not Tested; D: No Activity Observed in the Reported Assay. The note with it: for SEPTTR 1DP, LV activity at 125.1 g/H (% Control rating) / SEPTTR 1DP disease control rating, HV activity: 1 Day Protectant; for SEPTTR 3DC, LV activity at 125.1 g/H (% Control rating) / SEPTTR 3DC disease control rating, HV activity: 3 Day Curative; for SEPTTR 1DP disease control rating, HV activity / SEPTTR 3DC disease control rating, HV activity: HV application at 100 ppm, wheat leaf blotch.

Another assay has as its system Puccinia triticina. Nature of the assay: Wheat brown rust (PUCCRT) disease control on wheat seedlings. The class given is in vivo. Details: key to PUCCRT 3DC, HV activity at 100 ppm (% control rating) / PUCCRT disease control, 3DC / PUCCRT 1DP disease control rating, HV activity / PUCCRT 3DC disease control rating, HV activity / PUCCRT 3DC, LV activity at 125.1 g/H (% Control rating) / PUCCRT 1DP, LV activity at 125.1 g/H (% Control rating) / PUCCRT 3DC disease control rating, LV activity at 125.1 g/H / PUCCRT 1DP disease control rating, LV activity at 125.1 g/H / PUCCRT 3DC disease control rating, HV activity at 100 ppm / PUCCRT 1DP disease control rating, HV activity at 100 ppm / HV activity at 100 ppm PUCCRT 3DC (disease control rating) / LV activity at 125.1 g/H PUCCRT 1DP (disease control rating) / LV activity at 125.1 g/H PUCCRT 3DC (disease control rating): A: > 80; B: ≤ 80; C: Not Tested; D: No Activity Observed in the Reported Assay. To be noted: for PUCCRT 1DP, LV activity at 125.1 g/H (% Control rating) / PUCCRT 1DP disease control rating, HV activity: 1 Day Protectant; for PUCCRT 3DC, LV activity at 125.1 g/H (% Control rating) / PUCCRT 3DC disease control rating, HV activity: 3 Day Curative; for PUCCRT 1DP disease control rating, HV activity / PUCCRT 3DC disease control rating, HV activity: HV application at 100 ppm, wheat brown rust.

Where [1] appears, read: low volume application, 125.1 g/H.
[2] abbreviates: high volume application, 100 ppm, 1 day protectant.
[3] abbreviates: high volume application, 100 ppm, 3 day curative.
The mark [4] stands for this setting: low volume application, 125.1 g/H, 1 day protectant.
The mark [5] stands for this setting: low volume application, 125.1 g/H, 3 day curative.

`CCC(CC)[C@@H](Oc1cc(F)cc(Cl)c1)[C@H](C)OC(=O)[C@@H](NC(=O)c1nccc(OC)c1OCOC(C)=O)C(C)C` [Cmpd 651]: in the assay on Zymoseptoria tritici (setting [1]), the “SEPTTR 1DP, LV activity at 125.1 g/H (% Control rating)” value (“SEPTTR 1DP … (% Control rating)” for short) is on record as “A (> 80)” and the “SEPTTR 3DC, LV activity at 125.1 g/H (% Control rating)” value (“SEPTTR 3DC … (% Control rating)” below) is given as “A (> 80)”. Moreover, in the assay on Puccinia triticina (setting [1]), the “PUCCRT 1DP, LV activity at 125.1 g/H (% Control rating)” value (shortened to “PUCCRT 1DP … (% Control rating)”) is given as “A (> 80)” and the “PUCCRT 3DC, LV activity at 125.1 g/H (% Control rating)” value (“PUCCRT 3DC … (% Control rating)” for short) is on record as “B (≤ 80)”.
For `COc1cc(O[C@H](C2CC2)[C@H](C)OC(=O)[C@H](C)NC(=O)c2nccc(OC)c2O)ccc1Cl` [Cmpd 1000], the “SEPTTR 1DP disease control rating, HV activity at 100 ppm” value in the assay on Zymoseptoria tritici (setting [2]) is “B (≤ 80)”. Besides, in the assay with Zymoseptoria tritici (setting [3]), the “SEPTTR 3DC disease control rating, HV activity at 100 ppm” value is recorded as “B (≤ 80)”. Also, the “PUCCRT 1DP disease control rating, HV activity at 100 ppm” value in the assay with Puccinia triticina (setting [2]) is listed as “A (> 80)”. For the same compound, in the assay with Puccinia triticina (setting [3]), the “PUCCRT 3DC disease control rating, HV activity at 100 ppm” value is recorded as “A (> 80)”.
Take `CCC(CC)[C@@H](Oc1ccc(Cl)cc1Cl)[C@H](C)OC(=O)[C@@H](NC(=O)c1nccc(OC)c1OCOC(C)=O)C(C)C` [Cmpd 649]: in the assay with Zymoseptoria tritici (setting [1]), the “SEPTTR 1DP … (% Control rating)” value is given as “D” and the “SEPTTR 3DC … (% Control rating)” value is “D”. In the assay with Puccinia triticina (setting [1]), the “PUCCRT 1DP … (% Control rating)” value is given as “A (> 80)” and the “PUCCRT 3DC … (% Control rating)” value was “B (≤ 80)”.
As to `CCC(CC)[C@@H](Oc1ccc(-c2ccccc2)cc1)[C@H](C)OC(=O)[C@@H](NC(=O)c1nccc(OC)c1O)C(C)C` [Cmpd 414], in the assay with Zymoseptoria tritici, the “SEPTTR 1DP disease control rating, HV activity” value is on record as “A (> 80)” and the “SEPTTR 3DC disease control rating, HV activity” value is “B (≤ 80)”. In the assay with Puccinia triticina, the “PUCCRT 1DP disease control rating, HV activity” value is “B (≤ 80)” and the “PUCCRT 3DC disease control rating, HV activity” value is “B (≤ 80)”.
For `COc1ccnc(C(=O)NC(C)C(=O)OC(C)C(OC(=O)c2ccccc2)C(C)C)c1O` (stereo not shown) [Cmpd 431], in the assay with Zymoseptoria tritici, the “SEPTTR 1DP disease control rating, HV activity” value is given as “D” and the “SEPTTR 3DC disease control rating, HV activity” value was “D”. In the assay on Puccinia triticina, the “PUCCRT 1DP disease control rating, HV activity” value is “A (> 80)” and the “PUCCRT 3DC disease control rating, HV activity” value was “D”.
Regarding `CCCOC(CC)C(Oc1ccccc1)C(C)OC(=O)C(C)(C)NC(=O)c1nccc(OC)c1O` (stereo not shown) [Cmpd 417], in the assay with Zymoseptoria tritici, the “SEPTTR 1DP disease control rating, HV activity” value is “D” and the “SEPTTR 3DC disease control rating, HV activity” value is reported as “B (≤ 80)”. Moreover, in the assay on Puccinia triticina, the “PUCCRT 1DP disease control rating, HV activity” value was “D” and the “PUCCRT 3DC disease control rating, HV activity” value is “D”.
Take `CCCO[C@@H](C(C)C)[C@H](C)OC(=O)[C@H](C)NC(=O)c1nccc(OC)c1OC(C)=O` [Cmpd 855]: the “SEPTTR 1DP disease control rating, LV activity at 125.1 g/H” value in the assay on Zymoseptoria tritici (setting [4]) is listed as “D”. Moreover, the “SEPTTR 3DC disease control rating, LV activity at 125.1 g/H” value with Zymoseptoria tritici (setting [5]) is on record as “D”. Also, the “PUCCRT 1DP disease control rating, LV activity at 125.1 g/H” value with Puccinia triticina (setting [4]) was “B (≤ 80)”. The “PUCCRT 3DC disease control rating, LV activity at 125.1 g/H” value in the assay with Puccinia triticina (setting [5]) is on record as “B (≤ 80)”.
Turning to `COc1ccnc(C(=O)NC(C)C(=O)OC(C)COc2ccccc2)c1OC(C)=O` (stereo not shown) [Cmpd 524], in the assay on Zymoseptoria tritici (setting [1]), the “SEPTTR 1DP … (% Control rating)” value was “B (≤ 80)” and the “SEPTTR 3DC … (% Control rating)” value is on record as “B (≤ 80)”. In the assay with Puccinia triticina (setting [1]), the “PUCCRT 1DP … (% Control rating)” value is given as “D” and the “PUCCRT 3DC … (% Control rating)” value is given as “B (≤ 80)”.
With `COc1ccnc(C(=O)NC(C)C(=O)OC(C)C(Oc2ccc(F)cc2)C(C)C)c1O` (stereo not shown) [Cmpd 391], in the assay on Zymoseptoria tritici, the “SEPTTR 1DP disease control rating, HV activity” value is “A (> 80)” and the “SEPTTR 3DC disease control rating, HV activity” value is given as “A (> 80)”. Moreover, in the assay with Puccinia triticina, the “PUCCRT 1DP disease control rating, HV activity” value was “A (> 80)” and the “PUCCRT 3DC disease control rating, HV activity” value was “A (> 80)”.
Take `CCCOC[C@@H](Oc1ccccc1)[C@H](C)OC(=O)[C@H](C)NC(=O)c1nccc(OC)c1O` [Cmpd 310]: in the assay on Zymoseptoria tritici, the “SEPTTR 1DP disease control rating, HV activity” value is “D” and the “SEPTTR 3DC disease control rating, HV activity” value was “B (≤ 80)”. In addition, in the assay on Puccinia triticina, the “PUCCRT 1DP disease control rating, HV activity” value is recorded as “A (> 80)” and the “PUCCRT 3DC disease control rating, HV activity” value is recorded as “A (> 80)”.
